Laboratory results taken from patent US20040039014A1, “Methods and compounds for treating depression and other disorders” (NPS Pharmaceuticals, Inc., priority 1998, published 2004).
Where two headings read alike, the source gives them in different places. Marks after values point to notes of the source that are not given here.

Experiments:
[1] = target: T1, NMDA receptor; test: [3H]MK-801 binding assay (rat cortex synaptic plasma membranes); conditions: read-out: [3H]MK-801 data IC50, Table I
T1 construct: rat cortex membranes
Method: Synaptic plasma membranes (SPMs) from rat cortex were prepared as follows. Isolated cerebral cortices from male and female rats were purchased from Pel-Freez (Rogers, Ariz.) in bulk, and stored at −80° C. The cortices from 25 rats were thawed and pooled. […] The resulting homogenates were centrifuged for 10 min at 1,000×g in a T865 rotor, UltraPro80 Sorvall Centrifuge. The supernatant was removed and subsequently centrifuged at 30,000×g for 30 min. […] Membranes were washed by re-suspension in 500 ml of 5 mM K-EDTA (pH 7.0), incubated at 32° C. for 30 min with stirring, and centrifuged at 100,000×g for 30 min. The final pellet was resuspended in 60 ml of […] K-EDTA (pH 7.0) and stored in aliquots at −80° C. The extensive washing procedure utilized in this assay was designed to minimize the concentrations of glutamate and glycine (co-agonists at the NMDA receptor-ionophore complex) present in the membrane preparation.
On the day of assay, aliquots of SPM were thawed and resuspended in 75 vols of 5 mM K-EDTA, pH 7.0. SPM were centrifuged at 100,000×g for 30 min at 4° C.
The SPM pellet was resuspended in assay buffer (30 mM EPPS, 1 mM K-EDTA, pH 7.0) by polytron. […] Binding was started by the addition of the tissue homogenate. The assay was terminated by the addition of 4 ml ice-cold buffer, followed by filtration over glass-fiber filters (Schleicher & Schuell No. 30) on a Millipore 12-well filtration manifold. Filters were washed with another 3 ×4 ml ice-cold buffer (pH 7.0). Radioactivity on the filters was measured using Fisherbrand Scinti-Safe scintillation cocktail. Samples were shaken for 45-60 min on a shaker platform to solubilize the radioactivity. Counting for ^3H was performed in a Beckman 6000IC LS Scintillation Counter for 4 min per sample.

[2] = test system: male NMRI-CERJ mice; test: Automated tail-suspension test in mice (Compound 19); assay type: in vivo, mouse; conditions: 16 mg/kg i.p., 30 min prior to testing; p<0.001
Method: In this test, the animal is suspended by the tail for 6 minutes. The behavior of the animal is recorded automatically using a special computerized apparatus which measures two parameters, the duration of immobility and the power of the movements. Ten animals are studied per dose group. […] This test, which is a variant of the behavioral despair test, is based on the assumption that animals faced with an insoluble aversive situation will alternate between phases of activity (searching to escape) and immobility (waiting, “despairs”).

[3] = target: T2, serotonin transporter site (Rattus norvegicus, UniProt P31652); test: Serotonin reuptake inhibition assay ([3H]citalopram binding, rat forebrain membranes)
T2 construct: tissue NovaScreen (performed the assay); host or cells: rat forebrain membranes
T2 sequence (P31652 whole entry): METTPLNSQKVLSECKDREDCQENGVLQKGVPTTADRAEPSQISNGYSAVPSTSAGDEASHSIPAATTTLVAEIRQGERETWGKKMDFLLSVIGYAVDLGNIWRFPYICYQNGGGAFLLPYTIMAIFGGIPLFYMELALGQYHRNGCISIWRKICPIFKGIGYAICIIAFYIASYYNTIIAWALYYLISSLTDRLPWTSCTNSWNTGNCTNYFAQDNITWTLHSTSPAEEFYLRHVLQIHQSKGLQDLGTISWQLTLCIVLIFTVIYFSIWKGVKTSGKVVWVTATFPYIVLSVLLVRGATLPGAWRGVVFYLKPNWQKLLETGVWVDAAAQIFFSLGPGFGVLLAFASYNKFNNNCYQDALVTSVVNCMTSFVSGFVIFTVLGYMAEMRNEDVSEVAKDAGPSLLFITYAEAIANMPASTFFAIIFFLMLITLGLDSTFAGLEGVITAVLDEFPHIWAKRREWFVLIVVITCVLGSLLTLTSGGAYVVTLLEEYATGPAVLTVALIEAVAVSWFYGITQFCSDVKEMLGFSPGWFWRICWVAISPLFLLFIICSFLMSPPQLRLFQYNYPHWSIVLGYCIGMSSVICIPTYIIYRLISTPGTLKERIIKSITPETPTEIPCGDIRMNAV
Method: (§1) Monoamine Transporter Minding Assays
(§2) Monoamine transporter binding assays (reuptake inhibition assays) were performed by NovaScreen using standard radioligand binding assays. The transporter binding assays are described briefly below:
Serotonin Reuptake Inhibition Assay
Rat forebrain membranes were incubated with 0.7 nM [^3H] citalopram, N-methyl, (70-87 Ci/mmol)in 50 mM Tris-HCl (pH 7.4), 120 mM NaCl, and 5 mM KCl at 25° C. for 60 minutes. […] Reactions were terminated by rapid vacuum filtration onto glass fiber filters.

[4] = target: T3, dopamine transporter site (Cavia porcellus, UniProt H0WCX4); test: Dopamine reuptake inhibition assay ([3H]WIN 35428 binding, guinea pig striatal membranes)
T3 construct: tissue NovaScreen (performed the assay); host or cells: guinea pig striatal membranes
T3 sequence (H0WCX4 1-619): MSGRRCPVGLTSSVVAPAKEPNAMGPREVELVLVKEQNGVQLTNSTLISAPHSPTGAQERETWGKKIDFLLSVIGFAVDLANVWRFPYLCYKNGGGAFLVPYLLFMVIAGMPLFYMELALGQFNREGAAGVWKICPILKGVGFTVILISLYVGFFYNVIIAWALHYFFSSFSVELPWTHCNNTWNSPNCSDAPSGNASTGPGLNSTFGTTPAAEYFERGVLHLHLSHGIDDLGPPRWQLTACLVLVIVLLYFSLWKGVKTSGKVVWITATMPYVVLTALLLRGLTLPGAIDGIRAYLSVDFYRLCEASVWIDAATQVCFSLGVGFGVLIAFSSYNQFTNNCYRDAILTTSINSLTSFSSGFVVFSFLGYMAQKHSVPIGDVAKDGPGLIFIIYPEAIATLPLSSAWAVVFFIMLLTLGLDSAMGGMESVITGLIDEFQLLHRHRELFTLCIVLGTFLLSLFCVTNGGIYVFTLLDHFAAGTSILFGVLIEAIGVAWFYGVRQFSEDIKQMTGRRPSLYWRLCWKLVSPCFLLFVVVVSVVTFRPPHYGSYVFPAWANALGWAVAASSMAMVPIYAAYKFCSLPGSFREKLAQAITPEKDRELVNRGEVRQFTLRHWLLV
Method: as §1, §2
Dopamine Reuptake Inhibition Assay:
Reactions were terminated by rapid vacuum filtration onto glass fiber filters. Bound radioactivity was determined using liquid scintillation spectrometry and experimental values were compared to control values to determine binding to the dopamine transporter site based on Madras, et al., Molec.

[5] = test system: T4, NMDA receptor; test: NMDA receptor assay (fura-2 cytosolic calcium in cultured rat cerebellar granule cells); assay type: cell-based; conditions: Table I, read-out: fura2 data IC50
T4 construct: fura2 data IC50; rat cerebellar granule cells
Method: All culture media, antibiotics, and enzymes, with the exception of fetal calf serum (Hyclone Laboratories, Logan, Utah), were purchased from Sigma Chemical Co., St. Louis, Mo. Fura-2/AM was obtained from Molecular Probes, Eugene, Oreg., and was prepared freshly in dimethylsulfoxide (DMSO) before use. Ionomycin (Calbiochem) was stored as a stock solution in DMSO. Nifedipine (Sigma) and nimodipine (RBI) were dissolved in absolute ethanol. […] All other agents were dissolved in phosphate-buffered saline (PBS), and adjusted to pH 7.4
Preparation of Rat Cerebellar Granule Cell (RCGC) Cultures
Briefly, primary cultures of cerebellar granule neurons were obtained from 8-day-old rats and plated onto squares of Aclar plastic coated with poly-L-lysine. The plastic squares were placed in 12-well culture plates, and ˜7.5×10^5 cells were added to each well. Cultures were maintained in Eagles's medium containing 25 mM KCl, 10% fetal calf serum, 2 mM glutamine, 100 μg/ml gentamicin, 50 U/ml penicillin, and 50 μg/ml streptomycin at 37° C. in a humid atmosphere of 5%CO2 in air for 24 hr before the addition of cytosine arabinoside (10 μM, final). No changes of culture medium were made until the cells were used for fluorescence recording 6-8 days after plating.
Measurement of Cytosolic Calcium
(“Ca^2+-free” buffer contained no added CaCl2 and 30 μM EGTA). The cells were then rinsed with the same buffer, lacking fura-2/AM, and maintained at room temperature until used for measurement of fluorescence, the Aclar squares were transferred into quartz cuvettes containing 2 ml of the HEPES buffer. The cuvette was then placed into a thermostatted holder equipped with a magnetic stirrer in a custom-built spectrofluorimeter (Biomedical Instrumentation Group, University of Pennsylvania, Philadelphia, Pa.). The size of the plastic Aclar square was such as to fit snugly in the cuvette when placed at a diagonal and therefore suspend itself over the spin bar. Fluorescence was measured using excitation and emission wavelengths of 340 and 510 nm, respectively. The amplitude of the evoked increase in fluorescence and subsequent inhibition were recorded and the concentration of [Ca^2+]i was calculated using the formula:
[Ca^2+]=Kd (F-Fmin)/(Fmax-F) (Eq. 1)
F=fluorescence amplitude evoked at a particular time point or concentration of compound;
Fmin=minimum fluorescence determined after the addition of a 2.5 M TRIS/0.3 M EGTA solution;
Fmax=maximum fluorescence determined following the addition of 7 mM ionomycin in DMSO; and […]

[6] = target: T5, norepinephrine transporter site (Rattus norvegicus, UniProt Q63380); test: Norepinephrine reuptake inhibition assay ([3H]nisoxetine binding, rat forebrain membranes)
T5 construct: tissue NovaScreen (performed the assay); host or cells: rat forebrain membranes
T5 sequence (Q63380 1-617): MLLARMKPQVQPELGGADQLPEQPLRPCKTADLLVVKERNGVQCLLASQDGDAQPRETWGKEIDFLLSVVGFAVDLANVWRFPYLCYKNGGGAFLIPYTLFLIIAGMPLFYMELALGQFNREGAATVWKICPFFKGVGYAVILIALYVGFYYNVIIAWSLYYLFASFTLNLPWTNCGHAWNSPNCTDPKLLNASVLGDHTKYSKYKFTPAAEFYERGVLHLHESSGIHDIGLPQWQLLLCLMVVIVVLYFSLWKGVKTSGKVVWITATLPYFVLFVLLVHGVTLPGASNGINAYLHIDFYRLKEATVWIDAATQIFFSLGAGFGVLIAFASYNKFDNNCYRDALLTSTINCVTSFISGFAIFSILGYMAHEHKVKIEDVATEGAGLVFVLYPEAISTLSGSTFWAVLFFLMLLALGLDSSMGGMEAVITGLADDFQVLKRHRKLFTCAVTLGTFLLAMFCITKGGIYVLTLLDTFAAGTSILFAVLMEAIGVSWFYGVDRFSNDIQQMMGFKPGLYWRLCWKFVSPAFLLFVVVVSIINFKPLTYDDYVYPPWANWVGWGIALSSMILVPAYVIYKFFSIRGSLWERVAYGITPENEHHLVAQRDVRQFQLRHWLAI
Method: as §1, §2
Norepinephrine Reuptake Inhibition Assay
Reactions were terminated by rapid vacuum filtration onto glass fiber filters.

[7] = test system: male C57BL/6 mice; test: Mouse tail-suspension test (TST) with Compound 60; assay type: in vivo
Method: For the mouse tail-suspension test with Compound 60, male pathogen-free C57BL/6 mice (Harlan Sprague-Dawley) weighing between 22-25 g were used. Animals were removed from the housing room to the testing area in their own cages and allowed to adapt to the new environment for at least 1 hour before testing. Mice were administered either drug (imipramine, 15 mg/kg i.p.; or Compound 60, various p.o. doses) or saline. Thirty minutes to 24 hours later, the mice were suspended on the edge of a shelf 80 cm above the floor in the testing room by adhesive tape placed approximately 1 cm from the tip of the tail. The duration of immobility was recorded during a test period of 5 minutes. Mice were considered immobile only when they hung passively and completely motionless. Results were expressed as the duration of immobility (sec).

[8] = test system: male NIH-Swiss mice; test: Mouse forced-swim test (FST); assay type: in vivo; conditions: 10 mg/kg i.p. single dose 30 minutes prior to testing
Method: (§3) For the mouse and rat forced-swim tests, male pathogen-free NIH-Swiss mice (Harlan Sprague-Dawley) weighing between 22-25 g, and male pathogen-free Sprague-Dawley rats (Harlan Sprague-Dawley) weighing between 320-350 g were used. Animals were removed from the housing room to the testing area in their own cages and allowed to adapt to the new environment for at least 1 hour before testing. Mice were administered either drug (imipramine, 10 mg/kg i.p.; or Compound 60, various p.o or i.p. doses) or saline. Thirty minutes to 24 hours later, mice were placed individually in cylinders (diameter: 10 cm; height: 25 cm) filled with 6 cm of water (22-25° C.) for 6 minutes. The duration of immobility during the last 4 minutes of the 6 minute test was scored. A mouse was recorded as immobile when floating motionless or making only those movements necessary to keep its head above water. Results were expressed as the duration of immobility (seconds).

[9] = test system: male Sprague-Dawley rats; test: Rat forced-swim test (FST); assay type: in vivo; conditions: Table VI; 10 mg/kg i.p., 30 minutes prior to testing; saline control 47.9
Method: as §3
The rat forced-swim test was conducted over two days. On treatment Day 1, rats were placed individually in cylinders (diameter: 18 cm; height: 40 cm) filled with water (22-25° C.) to a depth of 15 cm for 15 minutes. The duration of immobility during the first 5 minutes was scored. After testing, the rats were dried with paper towels and placed in holding cages. Five minutes after removal from the testing cylinders, animals received either drug (imipramine, 10 mg/kg i.p.; or Compound 60, various p.o. doses) or saline (p.o.). Ten minutes later, the rats were returned to their home cages. […] The duration of immobility during the first 5 minute period was recorded. A rat was recorded as immobile when floating motionless or making only those movements necessary to keep its head above water. […]

[10] = Table I, read-out: 5-HT Uptake Ki

SMILES	IC50 [1]	Ki [3, 10]	Ki [4]	IC50 [5]	Ki [6]	also measured
NCCC(c1ccccc1)c1ccccc1 [Compound 19]	2100 nM	–	–	–	–	increase in the power of movements [2]: 275%
NCCC(c1cccc(F)c1)c1cccc(F)c1 [Compound 20]	252 nM	256 nM	3000 nM	70 nM	312 nM	–
C[C@@H](CN)C(c1cccc(F)c1)c1cccc(F)c1 [Compound 33]	181 nM	1200 nM	826 nM	60 nM	3800 nM	–
C[C@H](CN)C(c1cccc(F)c1)c1cccc(F)c1 [Compound 34]	2700 nM	2100 nM	602 nM	426 nM	3000 nM	–
C[C@H](N)CC(c1cccc(F)c1)c1cccc(F)c1 [Compound 50]	762 nM	45 nM	1800 nM	89 nM	107 nM	–
CNCCC(c1ccccc1)c1ccccc1 [Compound 67]	2900 nM	–	–	11000 nM	–	–
Fc1cccc(C(c2cccc(F)c2)C2CCCNC2)c1 (centres unmarked) [Compound 111]	167 nM	–	30 nM	645 nM	124 nM	Ki [3]: 600 nM
NCCC(Oc1cccc(F)c1)c1ccccc1 (centres unmarked) [Compound 137]	–	–	–	232 nM	–	–
CN(C)CCCN1c2ccccc2CCc2ccccc21 [Imipramine, reference compound]	–	–	–	–	–	Mean duration of immobility ([7]; Table VII, positive control, 15 mg/kg i.p. 30 minutes prior to testing, saline control 154.9): 103.6* sec; Duration of Immobility ([7]; Table VIII (experiment #1), 15 mg/kg i.p. single dose 30 minutes prior to testing, saline control 210.1): 133.9* sec; Mean duration of immobility ([8]; Table IV, saline control 129.7): 53.4* sec; Mean duration of immobility ([8]; Table V, saline control 137.8): 72.5* sec; Mean Change in the Duration of Immobility (Day 2 minus Day 1) [9]: −23.3* sec
